Test results from patent US20260242776A1, “Modification of tRNA T-Stem for Enhancing N-Methyl Amino Acid Incorporation” (priority 2019, published 2026).
*1 amine or outer side, *2 acyl side, *3 side chain or, on linkers, in order; H or OH if unused. Where no end group is shown, it is not given here. [ ]: non-standard residue; d: D form. The star is where a group is joined. MeYm = N-methyl-p-methoxyphenylalanine, COc1ccc(C[C@@H](C(=O)[*:2])N(C)[*:1])cc1; NMeY = CN[C@@H](Cc1ccc(O)cc1)C(=O)O; NMeF = CN[C@@H](Cc1ccccc1)C(=O)O; NMeNle = CCCC[C@H](NC)C(=O)O; NMeNva = CCC[C@H](NC)C(=O)O; NMeV = CN[C@H](C(=O)O)C(C)C; NMeS = CN[C@@H](CO)C(=O)O; NMeA = CN[C@@H](C)C(=O)O; Sar = CNCC(=O)O; For = O=C*

Tested on: FIT system (reconstituted E. coli cell-free translation system)
Experiment: In vitro translation in FIT system, peptide expression level by tricine-SDS-PAGE autoradiography
Format: biochemical
Conditions: mRNA14, 9 different ^MeAAs; control translation using 20 pAAs; FIG. 6d, 6e

Substance: P14: 32-mer model peptide composed of 9 respectively different ^MeAAs and 14 pAAs, translated from mRNA14 (For-MKKK[NMeS]HM[Sar][NMeV]TE[NMeNle]S[NMeY][NMeA]QN[MeYm]GW[NMeNva]R[NMeF]PDYKDDDDK)
- Expression efficiency relative to the control: 34%
